{"source": "patent US20210382058A1", "about": "“PATIENT SELECTION FOR TREATMENT OF MYC POSITIVE CANCERS WITH INDENOISOQUINOLINES” (Purdue Research Foundation, priority 2020, published 2021)", "key": {"MycPu22": {"target": "MycPu22", "experiment": "Competition fluorescence displacement, competitor MycPu22", "set-up": "species or system human", "conditions": "competitor binding affinity; 20 nM 3′-TAMRA MycPu22, 20 nM compound, 20° C., pH 7, 100 mM K+", "protocol": "(§1) Using a competition fluorescence displacement assay, the binding selectivity of five indenoisoquinolines for MycG4 was determined as compared to a parallel K-Ras promoter G4, a hybrid telomeric G4, and double-stranded (ds) DNA at 1 and 5 equivalents of each compound (FIGS. 7 and 16A-16C). The 3′-TAMRA labeled MycPu22 DNA was used as the fluorescence probe, whose fluorescence was quenched upon the binding of indenoisoquinolines. Upon addition of unlabeled, non-fluorescent competitors (e.g. other DNA G4s and dsDNA), the TAMRA-labeled MycPu22 DNA is displaced by the competitor DNA for indenoisoquinoline binding and the initial high TAMRA-fluorescence is restored. The competition fluorescence displacement assay allows for a straightforward assessment of selective binding towards MycG4 vs. the competitors, i.e. MycG4s (parallel), K-Ras G4 (parallel), telomeric G4 (hybrid), and dsDNA. One and five compound equivalents were used to assess the selectivity of the strongest binding site and other binding sites of each indenoisoquinoline. […] As shown in the modeling study, the substituents on the A- and D-rings of indenoisoquinolines likely contribute to binding MycG4 by more optimal stacking interactions with the external G-tetrads. On the other hand, the increased size of the indenoisoquinoline ring system may hinder intercalation in dsDNA due to possible steric collision with the DNA backbone. […] 6-Substituted indenoisoquinolines were previously reported to bind to the c-Kit promoter G4s which were also primarily parallel.^17\n(§2) The competition fluorescence displacement experiments were performed on a Jasco FP-8300 Spectrofluorometer equipped with a temperature controller at 20° C. The stock solution containing 2 μM 3′-TAMRA-labelled MycPu22 oligonucleotide was diluted to 20 nM using 75 mM KCl, 25 mM phosphate buffer at pH 7.0. To check the binding selectivity of each compound to MycG4 DNA, 20 nM or 100 nM of the indenoisoquinoline was added to the DNA solution in a total volume of 1.6 mL in a quartz cell with a 10 mm path length. Subsequently, various unlabeled MycG4s (MycPu22 and MycPu28), K-Ras G4, telomeric G4 DNAs, or calf thymus dsDNA were gradually added to the complex solution. For each addition of the DNA, the sample was equilibrated at least 2 min. The fluorescence spectrum was recorded between 570 and 600 nm with an excitation wavelength of 555 nm, 10 nm bandwidths, 100 nm/min of scan speed, and 1 s of response time. The fluorescence intensities at the emission maximum (Δmax=580 nm) were plotted for figures. The competitor binding affinities (K, values) were calculated by\n(§3) using data from 20 nM compound. The C50 value was the concentration of the unlabeled competing DNA that recovers the fluorescence of the labelled DNA by 50%. [L] represents the ligand concentration that is a constant value of 20 nM. Kd,app values were obtained by fluorescence-based binding assay."}, "MycPu28": {"target": "MycPu28", "experiment": "Competition fluorescence displacement, competitor MycPu28", "set-up": "species or system human", "conditions": "competitor binding affinity; 20 nM 3′-TAMRA MycPu22, 20 nM compound, 20° C., pH 7, 100 mM K+", "protocol": "as §1, §2, §3"}, "[1]": {"target": "K-RasG4 (parallel K-Ras promoter G4)", "experiment": "Competition fluorescence displacement, competitor K-Ras G4", "conditions": "competitor binding affinity; 20 nM 3′-TAMRA MycPu22, 20 nM compound, 20° C., pH 7, 100 mM K+", "protocol": "as §1, §2, §3"}, "Telomeric G4 (hybrid)": {"test_system": "Telomeric G4 (hybrid)", "experiment": "Competition fluorescence displacement, competitor telomeric G4", "assay_type": "binding", "conditions": "for binding selectivity for parallel G4s over hybrid G4: competition fluorescence displacement, 1 and 5 equivalents; for Ki: competitor binding affinity, 20 nM 3′-TAMRA MycPu22, 20 nM compound, 20° C., pH 7, 100 mM K+", "protocol": "as §1, §2, §3"}, "calf thymus dsDNA": {"test_system": "calf thymus dsDNA", "experiment": "Competition fluorescence displacement, competitor dsDNA", "assay_type": "binding", "conditions": "for binding selectivity for DNA G4s over dsDNA: competition fluorescence displacement, 1 and 5 equivalents; for Ki: competitor binding affinity, Ki refers to the base-pair concentration, 20 nM compound, 20° C., pH 7, 100 mM K+", "protocol": "as §1, §2, §3"}}}
{"smiles": "COc1cnc2c(c1)C(=O)c1c-2n(CCCNC(C)C)c(=O)c2cc(F)ccc12", "note": "[Compound 5]", "values": [{"measurement": "Ki", "setting": "MycPu22", "value": 16, "unit": "nM"}, {"measurement": "Ki", "setting": "MycPu28", "value": 18, "unit": "nM"}, {"measurement": "Ki", "setting": "[1]", "value": 21, "unit": "nM"}, {"measurement": "binding selectivity for parallel G4s over hybrid G4", "setting": "Telomeric G4 (hybrid)", "value": "marked selectivity"}, {"measurement": "Ki", "setting": "Telomeric G4 (hybrid)", "value": 164, "unit": "nM"}, {"measurement": "binding selectivity for DNA G4s over dsDNA", "setting": "calf thymus dsDNA", "value": "remarkable selectivity"}, {"measurement": "Ki", "setting": "calf thymus dsDNA", "value": "~11000", "unit": "nM"}]}
{"smiles": "COc1cnc2c(c1)C(=O)c1c-2n(CCCNC2=NCCS2)c(=O)c2cc([N+](=O)[O-])ccc12", "note": "[Compound 12]", "values": [{"measurement": "Ki", "setting": "MycPu22", "value": 7, "unit": "nM"}, {"measurement": "Ki", "setting": "MycPu28", "value": 7, "unit": "nM"}, {"measurement": "Ki", "setting": "[1]", "value": 7, "unit": "nM"}, {"measurement": "binding selectivity for parallel G4s over hybrid G4", "setting": "Telomeric G4 (hybrid)", "value": "much less selectivity"}, {"measurement": "Ki", "setting": "Telomeric G4 (hybrid)", "value": 14, "unit": "nM"}, {"measurement": "binding selectivity for DNA G4s over dsDNA", "setting": "calf thymus dsDNA", "value": "remarkable selectivity"}, {"measurement": "Ki", "setting": "calf thymus dsDNA", "value": 3620, "unit": "nM"}]}
{"smiles": "CNCCCn1c2c(c3ccc(F)cc3c1=O)C(=O)c1cc(OC)cnc1-2", "note": "[Compound 6]", "values": [{"measurement": "Ki", "setting": "MycPu22", "value": 40, "unit": "nM"}, {"measurement": "Ki", "setting": "MycPu28", "value": 33, "unit": "nM"}, {"measurement": "Ki", "setting": "[1]", "value": 32, "unit": "nM"}, {"measurement": "binding selectivity for parallel G4s over hybrid G4", "setting": "Telomeric G4 (hybrid)", "value": "marked selectivity"}, {"measurement": "Ki", "setting": "Telomeric G4 (hybrid)", "value": 286, "unit": "nM"}, {"measurement": "binding selectivity for DNA G4s over dsDNA", "setting": "calf thymus dsDNA", "value": "remarkable selectivity"}, {"measurement": "Ki", "setting": "calf thymus dsDNA", "value": "~12000", "unit": "nM"}]}
{"smiles": "COc1cnc2c(c1)C(=O)c1c-2n(CCCN2CCCC2)c(=O)c2cc([N+](=O)[O-])ccc12", "note": "[Compound 9]", "values": [{"measurement": "Ki", "setting": "MycPu22", "value": 12, "unit": "nM"}, {"measurement": "Ki", "setting": "MycPu28", "value": 11, "unit": "nM"}, {"measurement": "Ki", "setting": "[1]", "value": 11, "unit": "nM"}, {"measurement": "binding selectivity for parallel G4s over hybrid G4", "setting": "Telomeric G4 (hybrid)", "value": "much less selectivity"}, {"measurement": "Ki", "setting": "Telomeric G4 (hybrid)", "value": 28, "unit": "nM"}, {"measurement": "binding selectivity for DNA G4s over dsDNA", "setting": "calf thymus dsDNA", "value": "remarkable selectivity"}, {"measurement": "Ki", "setting": "calf thymus dsDNA", "value": 5170, "unit": "nM"}]}
{"smiles": "O=C1c2ccccc2-c2c1c1ccccc1c(=O)n2CCCNCCO", "note": "[Compound 13]", "values": [{"measurement": "Ki", "setting": "MycPu22", "value": 26, "unit": "nM"}, {"measurement": "Ki", "setting": "MycPu28", "value": 19, "unit": "nM"}, {"measurement": "Ki", "setting": "[1]", "value": 23, "unit": "nM"}, {"measurement": "binding selectivity for parallel G4s over hybrid G4", "setting": "Telomeric G4 (hybrid)", "value": "selectivity for parallel G4s over hybrid G4"}, {"measurement": "Ki", "setting": "Telomeric G4 (hybrid)", "value": 146, "unit": "nM"}, {"measurement": "binding selectivity for DNA G4s over dsDNA", "setting": "calf thymus dsDNA", "value": "much less selectivity against dsDNA"}, {"measurement": "Ki", "setting": "calf thymus dsDNA", "value": 2140, "unit": "nM"}]}
